From ChEMBL document CHEMBL2311270, “Additional acetyl cholinesterase inhibitory property of diaryl pyrazoline derivatives” (Bioorg Med Chem Lett, 2013) come the findings set out here.

The source made the active and inactive calls. No cut-off for these calls is given here.

One assay deals with Acetylcholinesterase (Homo sapiens, UniProt P22303).
In assay [1] the target is Cholinesterase (Equus caballus) (UniProt P81908). In words: Inhibition of equine serum BChE using butyrylthiocholine iodide as substrate up to 100 nM after 60 mins by Ellman's method. (In general: Ellman's reagent forms a yellow product with free thiols.)
Sequence of Cholinesterase (Equus caballus) (P81908 whole entry): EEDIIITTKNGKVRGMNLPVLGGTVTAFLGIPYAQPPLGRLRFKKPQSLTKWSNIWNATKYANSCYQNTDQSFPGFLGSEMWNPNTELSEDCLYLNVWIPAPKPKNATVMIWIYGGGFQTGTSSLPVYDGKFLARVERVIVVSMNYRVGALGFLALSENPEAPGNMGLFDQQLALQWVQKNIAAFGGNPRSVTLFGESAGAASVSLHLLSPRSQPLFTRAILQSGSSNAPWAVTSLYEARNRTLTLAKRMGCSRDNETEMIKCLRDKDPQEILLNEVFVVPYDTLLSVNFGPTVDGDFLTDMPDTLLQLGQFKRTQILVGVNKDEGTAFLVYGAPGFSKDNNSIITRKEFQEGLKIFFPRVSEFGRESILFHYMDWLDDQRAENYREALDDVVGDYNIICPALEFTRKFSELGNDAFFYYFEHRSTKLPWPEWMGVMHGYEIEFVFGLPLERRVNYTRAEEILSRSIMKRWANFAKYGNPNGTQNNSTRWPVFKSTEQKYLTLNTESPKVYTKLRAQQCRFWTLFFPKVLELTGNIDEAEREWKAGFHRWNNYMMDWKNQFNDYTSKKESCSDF

Sequence of Acetylcholinesterase (P22303 whole entry): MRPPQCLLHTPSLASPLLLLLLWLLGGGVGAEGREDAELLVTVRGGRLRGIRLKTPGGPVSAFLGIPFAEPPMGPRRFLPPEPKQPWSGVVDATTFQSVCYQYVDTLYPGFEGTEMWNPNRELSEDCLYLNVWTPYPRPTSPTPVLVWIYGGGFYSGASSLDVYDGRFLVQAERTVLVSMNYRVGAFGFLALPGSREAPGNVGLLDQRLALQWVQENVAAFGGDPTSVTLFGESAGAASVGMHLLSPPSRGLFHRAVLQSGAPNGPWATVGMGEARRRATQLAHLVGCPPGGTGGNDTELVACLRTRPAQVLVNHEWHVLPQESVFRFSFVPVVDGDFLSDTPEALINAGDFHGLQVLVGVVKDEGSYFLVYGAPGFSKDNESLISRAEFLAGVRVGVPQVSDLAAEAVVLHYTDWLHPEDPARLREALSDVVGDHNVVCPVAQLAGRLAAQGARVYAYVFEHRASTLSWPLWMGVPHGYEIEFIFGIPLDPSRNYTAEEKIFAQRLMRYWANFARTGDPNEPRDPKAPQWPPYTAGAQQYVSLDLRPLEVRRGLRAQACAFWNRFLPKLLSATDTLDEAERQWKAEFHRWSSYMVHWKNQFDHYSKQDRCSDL
Description for Acetylcholinesterase: Inhibition of human erythrocyte AChE using acetylthiocholine iodide as substrate after 60 mins by Ellman's method

Turning to `O=[N+]([O-])c1ccc([C@@H]2CC(c3c4ccccc4cc4ccccc34)=NN2)cc1`, the Ki (as a rule, a dissociation constant, usually derived from enzyme kinetics or from competition with a known ligand) on Acetylcholinesterase is over 0.1 µM.
Take `COc1ccc([C@@H]2CC(c3c4ccccc4cc4ccccc34)=NN2)cc1`: the inhibition result in assay [1] was “inactive”. For the same molecule, the affinity at Acetylcholinesterase, expressed as Ki, was 0.0254 µM.
The corresponding values for `c1ccc([C@@H]2CC(c3c4ccccc4cc4ccccc34)=NN2)cc1` are “inactive” and 0.0302 µM.
Take `Clc1ccc([C@@H]2CC(c3c4ccccc4cc4ccccc34)=NN2)cc1`: the inhibition entry in assay [1] is “inactive”.
For `c1ccc([C@@H]2CC(c3c4ccccc4cc4ccccc34)=NN2)nc1`, the inhibition result in assay [1] was “inactive”. For the same molecule, the Ki at Acetylcholinesterase was found to be 0.0413 µM.
The corresponding values for `Oc1ccccc1[C@@H]1CC(c2c3ccccc3cc3ccccc23)=NN1` are “inactive” and 0.0244 µM.
The corresponding values for `O=[N+]([O-])c1cccc([C@@H]2CC(c3c4ccccc4cc4ccccc34)=NN2)c1` are “inactive” and 0.0206 µM.
The corresponding values for `Oc1ccc([C@@H]2CC(c3c4ccccc4cc4ccccc34)=NN2)c(O)c1` are “inactive” and 0.0072 µM.
`Cc1ccc([C@@H]2CC(c3c4ccccc4cc4ccccc34)=NN2)cc1` registered a Ki on Acetylcholinesterase of over 0.1 µM.
Still for that read-out and setting: the figure for `Oc1ccc([C@@H]2CC(c3c4ccccc4cc4ccccc34)=NN2)cc1` is over 0.1 µM.
